Among the data in ChEMBL document CHEMBL2417474, “Synthesis, antiproliferative and anti-inflammatory activities of some novel 6-aryl-2-(p-(methanesulfonyl)phenyl)-4,5-dihydropyridazi-3(2H)-ones” (Eur J Med Chem, 2013) are growth values, retold here.

One assay has as its system SF-295. The assay can be described thus: Growth inhibition of human SF295 cells assessed as cell growth at 10 uM after 48 hrs by sulforhodamine B assay. Type of assay: functional. Particulars: SF-295, 48 h, read-out: Activity. (In general: In SRB staining, fixed cells bind dye roughly in proportion to their protein.)
In the next assay the test system is NCI-H460. Description: Growth inhibition of human NCI-H460 cells assessed as cell growth at 10 uM after 48 hrs by sulforhodamine B assay. The note with it: NCI-H460, 48 h, read-out: Activity. In kind it is functional.

Take `CCc1ccc(C2=NN(c3ccc(S(C)(=O)=O)cc3)C(=O)CC2)cc1`: the growth at 10 µM in the assay on SF-295 turned out to be 9.24%; with NCI-H460, 10.6%.

With `Cc1cc(O)ccc1C1=NN(c2ccc(S(C)(=O)=O)cc2)C(=O)CC1`, the growth at 10 µM in the assay with SF-295 was 32.1%; in the assay with NCI-H460, 73.1%.
